Assay in all cases: Test A preemergence
Holding throughout (format): in vivo

In assay [1] the test system is giant foxtail (Setaria faberii). Conditions: Setaria faberi, pre-emergence, 240 h; for pest or weed control at 125 g/ha: 125 g ai/ha; for pest or weed control at 500 g/ha: 500 g ai/ha. The method, boiled down:
(§1)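 Each rating is a visual injury score from 0 to 100 given about 10 d after treatment, judged against untreated controls kept alongside in the greenhouse. In loam soil–sand blend, seeds got a preemergence directed soil spray, while postemergence plants were 2 to 10 cm tall at spraying.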

In assay [2] the test system is ryegrass, Italian (Italian ryegrass, Lolium multiflorum). The following applies: Lolium multiflorum, pre-emergence, 240 h; for pest or weed control at 125 g/ha: 125 g ai/ha; for pest or weed control at 500 g/ha: 500 g ai/ha. A digest of the protocol: as §1
The subject of assay [3] is ragweed (common ragweed, Ambrosia elatior). The following applies: Ambrosia artemisiifolia, pre-emergence, 240 h; for pest or weed control at 125 g/ha: 125 g ai/ha; for pest or weed control at 500 g/ha: 500 g ai/ha. The method, boiled down:
as §1

For another assay, the system named is Kochia (Kochia scoparia). The following applies: Bassia scoparia, pre-emergence, 240 h; for pest or weed control at 125 g/ha: 125 g ai/ha; for pest or weed control at 500 g/ha: 500 g ai/ha. The method, boiled down:
as §1

Assay [4] has as its system barnyardgrass (Echinochloa crus-galli). Conditions: Echinochloa crus-galli, pre-emergence, 240 h; for pest or weed control at 125 g/ha: 125 g ai/ha; for pest or weed control at 500 g/ha: 500 g ai/ha. A digest of the protocol:
as §1

The subject of assay [5] is pigweed (Amaranthus retroflexus). The following applies: Amaranthus retroflexus, pre-emergence, 240 h; for pest or weed control at 125 g/ha: 125 g ai/ha; for pest or weed control at 500 g/ha: 500 g ai/ha.
[6] abbreviates: preemergence, visual injury rating, 0 to 100 scale where 0 is no effect and 100 is complete control, approximately 10 d, read-out: Foxtail, Giant plant response rating.
Setting [7] is: preemergence, 0 to 100 scale where 0 is no effect and 100 is complete control, read-out: Foxtail, Giant plant response rating.
[8] abbreviates: preemergence, visual injury rating, 0 to 100 scale where 0 is no effect and 100 is complete control, approximately 10 d, read-out: Ryegrass, Italian plant response rating.
Setting [9] is: preemergence, 0 to 100 scale where 0 is no effect and 100 is complete control, read-out: Ryegrass, Italian plant response rating.
The mark [10] stands for this setting: preemergence, visual injury rating, 0 to 100 scale where 0 is no effect and 100 is complete control, approximately 10 d, read-out: Ragweed plant response rating.
Where [11] appears, read: preemergence, 0 to 100 scale where 0 is no effect and 100 is complete control, read-out: Ragweed plant response rating.
Where [12] appears, read: preemergence, visual injury rating, 0 to 100 scale where 0 is no effect and 100 is complete control, approximately 10 d, read-out: Kochia plant response rating.
Where [13] appears, read: preemergence, 0 to 100 scale where 0 is no effect and 100 is complete control, read-out: Kochia plant response rating.
The mark [14] stands for this setting: preemergence, visual injury rating, 0 to 100 scale where 0 is no effect and 100 is complete control, approximately 10 d, read-out: Barnyardgrass plant response rating.
[15] abbreviates: preemergence, 0 to 100 scale where 0 is no effect and 100 is complete control, read-out: Barnyardgrass plant response rating.
Where [16] appears, read: preemergence, visual injury rating, 0 to 100 scale where 0 is no effect and 100 is complete control, approximately 10 d, read-out: Pigweed plant response rating.
The mark [17] stands for this setting: preemergence, 0 to 100 scale where 0 is no effect and 100 is complete control, read-out: Pigweed plant response rating.
The mark [18] stands for this setting: Preemergence, 0 to 100 scale (0 no effect, 100 complete control), read-out: Plant response rating, Foxtail, Giant.
The mark [19] stands for this setting: Preemergence, 0 to 100 scale (0 no effect, 100 complete control), read-out: Plant response rating, Ryegrass, Italian.
Setting [20] is: Preemergence, 0 to 100 scale (0 no effect, 100 complete control), read-out: Plant response rating, Ragweed.
The mark [21] stands for this setting: Preemergence, 0 to 100 scale (0 no effect, 100 complete control), read-out: Plant response rating, Kochia.
Setting [22] is: Preemergence, 0 to 100 scale (0 no effect, 100 complete control), read-out: Plant response rating, Barnyardgrass.
Where [23] appears, read: Preemergence, 0 to 100 scale (0 no effect, 100 complete control), read-out: Plant response rating, Pigweed.

Where two headings read alike, the source gives them in different places.

`CN1C[C@H](c2ccc(C(F)F)cc2)[C@@H](C(=O)Nc2ccc(F)c(F)c2F)C1=O` [Compound 1260]: the pest or weed control at 125 g/ha in assay [1] (setting [6]) was 90%; in assay [2] (setting [8]), 50%; in assay [3] (setting [10]), 80%; with Kochia (Kochia scoparia) (setting [12]), 80%; in assay [4] (setting [14]), 90%; in assay [5] (setting [16]) it was 90%. Besides, the pest or weed control at 500 g/ha in assay [1] (setting [7]) was 90%; in assay [2] (setting [9]), 60%; in assay [3] (setting [11]) it was 90%; with Kochia (Kochia scoparia) (setting [13]), 90%; in assay [4] (setting [15]), 100%; in assay [5] (setting [17]), 90%.

On to `Cc1nc([C@H]2CN(C)C(=O)[C@@H]2C(=O)Nc2cccc(F)c2F)cs1` [Compound 1281], for which the pest or weed control at 125 g/ha in assay [1] (setting [6]) is 40%; in assay [2] (setting [8]), 0%; in assay [3] (setting [10]), 0%; in the assay with Kochia (Kochia scoparia) (setting [12]), 0%; in assay [4] (setting [14]) it was 40%; in assay [5] (setting [16]), 30%. Further, the pest or weed control at 500 g/ha is 90% in assay [1] (setting [7]); 20% in assay [2] (setting [9]); 60% in assay [3] (setting [11]); 60% in the assay on Kochia (Kochia scoparia) (setting [13]); 90% in assay [4] (setting [15]); 40% in assay [5] (setting [17]).

For `COc1cc([C@H]2CN(C)C(=O)[C@@H]2C(=O)Nc2ccccc2F)ccc1F` [Compound 1298], the pest or weed control at 125 g/ha in assay [1] (setting [6]) amounted to 90%; in assay [2] (setting [8]), 0%; in assay [3] (setting [10]) it was 0%; in the assay on Kochia (Kochia scoparia) (setting [12]), 0%; in assay [4] (setting [14]) it was 80%; in assay [5] (setting [16]), 0%. For the same compound, the pest or weed control at 500 g/ha in assay [1] (setting [7]) was 90%; in assay [2] (setting [9]), 0%; in assay [3] (setting [11]) it was 20%; with Kochia (Kochia scoparia) (setting [13]) it was 80%; in assay [4] (setting [15]), 90%; in assay [5] (setting [17]), 0%.

For the compound `COc1cc([C@H]2CN(C)C(=O)[C@@H]2C(=O)Nc2cccc(F)c2C)ccc1F` [Compound 1300], the pest or weed control at 125 g/ha in assay [1] (setting [6]) was determined as 90%; in assay [2] (setting [8]), 0%; in assay [3] (setting [10]), 0%; with Kochia (Kochia scoparia) (setting [12]), 0%; in assay [4] (setting [14]), 90%; in assay [5] (setting [16]), 0%. In addition, the pest or weed control at 500 g/ha in assay [1] (setting [7]) was determined as 90%; in assay [2] (setting [9]) it was 60%; in assay [3] (setting [11]), 80%; in the assay with Kochia (Kochia scoparia) (setting [13]) it was 60%; in assay [4] (setting [15]), 90%; in assay [5] (setting [17]) it was 40%.

`CN1C[C@H](c2cccc(C(C)(F)F)c2)[C@@H](C(=O)Nc2ccc(F)cc2F)C1=O` [Compound 1319]: the pest or weed control at 500 g/ha in assay [1] (setting [7]) was determined as 90%; in assay [3] (setting [11]), 20%; in the assay with Kochia (Kochia scoparia) (setting [13]) it was 80%; in assay [4] (setting [15]), 90%; in assay [5] (setting [17]), 60%. In addition, the pest or weed control at 125 g/ha in assay [1] (setting [18]) turned out to be 90%; in assay [2] (setting [19]) it was 30%; in assay [3] (setting [20]), 0%; in the assay with Kochia (Kochia scoparia) (setting [21]) it was 80%; in assay [4] (setting [22]) it was 90%; in assay [5] (setting [23]), 0%.

In the case of `CN1C[C@H](c2ccc3c(c2)CCO3)[C@@H](C(=O)Nc2cccc(F)c2F)C1=O` [Compound 1324], the pest or weed control at 500 g/ha in assay [1] (setting [7]) worked out at 100%; in assay [3] (setting [11]), 90%; in the assay with Kochia (Kochia scoparia) (setting [13]) it was 90%; in assay [4] (setting [15]) it was 100%; in assay [5] (setting [17]), 40%. Also, the pest or weed control at 125 g/ha in assay [1] (setting [18]) was 90%; in assay [2] (setting [19]), 20%; in assay [3] (setting [20]) it was 90%; in the assay on Kochia (Kochia scoparia) (setting [21]) it was 90%; in assay [4] (setting [22]) it was 90%; in assay [5] (setting [23]), 0%.

For the compound `O=C1NC[C@H](c2ccc(OC(F)F)cc2)[C@H]1C(=O)Nc1ccc(F)cc1F` [Compound 1325], the pest or weed control at 500 g/ha is 90% in assay [1] (setting [7]); 70% in assay [3] (setting [11]); 90% with Kochia (Kochia scoparia) (setting [13]); 90% in assay [4] (setting [15]); 90% in assay [5] (setting [17]). The pest or weed control at 125 g/ha in assay [1] (setting [18]) was found to be 90%; in assay [2] (setting [19]), 0%; in assay [3] (setting [20]), 10%; in the assay with Kochia (Kochia scoparia) (setting [21]), 80%; in assay [4] (setting [22]) it was 90%; in assay [5] (setting [23]), 60%.

On to `Cc1c(F)ccc([C@H]2CNC(=O)[C@@H]2C(=O)Nc2ccccc2F)c1F` [Compound 1326], for which the pest or weed control at 500 g/ha in assay [1] (setting [7]) is 90%; in assay [3] (setting [11]), 0%; with Kochia (Kochia scoparia) (setting [13]), 100%; in assay [4] (setting [15]) it was 90%; in assay [5] (setting [17]), 0%. In addition, the pest or weed control at 125 g/ha was determined as 60% in assay [1] (setting [18]); 20% in assay [2] (setting [19]); 0% in assay [3] (setting [20]); 30% in the assay on Kochia (Kochia scoparia) (setting [21]); 80% in assay [4] (setting [22]); 0% in assay [5] (setting [23]).

For `CN1C[C@H](c2cc(C(F)(F)F)cs2)[C@@H](C(=O)Nc2cccc(F)c2F)C1=O` [Compound 1377], the pest or weed control at 500 g/ha came to 100% in assay [1] (preemergence, 0 to 100 scale (0 no effect, 100 complete control), read-out: Plant response rating, Foxtail, Giant); 50% in assay [2] (preemergence, 0 to 100 scale (0 no effect, 100 complete control), read-out: Plant response rating, Ryegrass, Italian); 30% in assay [3] (preemergence, 0 to 100 scale (0 no effect, 100 complete control), read-out: Plant response rating, Ragweed); 80% in the assay with Kochia (Kochia scoparia) (preemergence, 0 to 100 scale (0 no effect, 100 complete control), read-out: Plant response rating, Kochia); 100% in assay [4] (preemergence, 0 to 100 scale (0 no effect, 100 complete control), read-out: Plant response rating, Barnyardgrass); 40% in assay [5] (preemergence, 0 to 100 scale (0 no effect, 100 complete control), read-out: Plant response rating, Pigweed). Further, the pest or weed control at 125 g/ha in assay [1] (setting [18]) was determined as 100%; in assay [2] (setting [19]) it was 20%; in assay [3] (setting [20]) it was 0%; in the assay on Kochia (Kochia scoparia) (setting [21]) it was 70%; in assay [4] (setting [22]) it was 80%; in assay [5] (setting [23]), 20%.
